Test results reported in patent US20240239854A1, “ANTIMICROBIAL PEPTIDES AND MODIFICATIONS THEREOF” (Donald Danforth Plant Science Center, priority 2022, published 2024).
Converted amounts (≈) assume the structure as drawn. Like-named read-outs stand apart in the source and are kept apart here. Positions of bridges follow the written chain, without caps; N, C: chain ends. Residues, ends and D or L forms follow the SMILES beside them. No end group written: not given here.

Legend:
B. cinerea [1] = experiment: Semi-in planta drop inoculation assay on detached leaves of N. benthamiana, gray mold (Example 4); type: in vivo; conditions: for Reduction of gray mold symptoms at 1.5 μM: peptide 1.5 μM; for Reduction of gray mold disease symptoms (lesion sizes): peptide 1.5, 3 and 6 μM, 48 h after inoculation
Botrytis cinerea T-4 = conditions: for MIC (μM) SFM: Table 18, SFM; for MIC (μM) (SFM + 2 mM CaCl2): Table 18, SFM + 2 mM CaCl2; for MIC (μM) (SFM + 100 mM KCl): Table 18, SFM + 100 mM KCl; for MIC (μM) (SFM + 100 mM NaCl): Table 18, SFM + 100 mM NaCl
F. oxysporum = experiment: Antifungal MIC assay in SFM culture media (Example 1); type: cell-based; conditions: Table 2; SFM culture media
B. cinerea [2] = system: B. cinerea
Alternaria alternata = experiment: 96-well plate antifungal MIC, resazurin cell viability (Example 4); type: cell-based; conditions: Table 19; unit not given, peptide concentrations in μM
Cercospora sojina = experiment: as above; type: cell-based; conditions: Table 19; unit not given, peptide concentrations in μM
[3] = system: Colletotrichum gloeosporioides; experiment: as above; type: cell-based; conditions: Table 19; unit not given, peptide concentrations in μM

Row | Compound | MIC (μM) SFM (Botrytis cinerea T-4) | MIC (μM) (SFM + 2 mM CaCl2) (Botrytis cinerea T-4) | MIC (μM) (SFM + 100 mM KCl) (Botrytis cinerea T-4) | MIC (μM) (SFM + 100 mM NaCl) (Botrytis cinerea T-4) | In vitro antifungal activity (MIC) Alternaria alternata (Alternaria alternata) | In vitro antifungal activity (MIC) Cercospora sojina (Cercospora sojina) | In vitro antifungal activity (MIC) Colletotrichum gloeosporioides [3] | also measured
1 | CC[C@H](C)[C@@H]1NC(=O)[C@H](CCCNC(=N)N)NC(=O)[C@@H](NC(=O)[C@H](CCCNC(=N)N)NC(=O)CNC(=O)[C@@H](N)CO)CSSC[C@@H](C(N)=O)NC(=O)[C@H](CC(N)=O)NC(=O)[C@H](CCCCN)NC(=O)[C@H]([C@@H](C)O)NC(=O)[C@H](Cc2c[nH]c3ccccc23)NC(=O)[C@H](Cc2ccccc2)NC(=O)[C@H](Cc2c[nH]c3ccccc23)NC(=O)[C@H](CCCNC(=N)N)NC(=O)[C@H](Cc2ccccc2)NC(=O)[C@H](CC(C)C)NC1=O [GMA1C_V2] (H-SGRCRILFRWFWTKNC-NH2; disulfide 4-16; N-terminus assumed) | 1.5 to 3 µM | 3 µM | >12 µM | 3 µM |  |  |  | Reduction of gray mold symptoms at 1.5 μM (B. cinerea [1]; drop inoculation assay): more effective than GMA1C_V1; Reduction of gray mold symptoms at 3 and 6 μM (B. cinerea [1]; drop inoculation assay, peptide 3 μM and 6 μM): completely abrogated gray mold symptoms
2 | C[C@@H](O)[C@H](NC(=O)[C@H](CS)NC(=O)[C@H](Cc1ccccc1)NC(=O)[C@H](CS)NC(=O)[C@H](CCCNC(=N)N)NC(=O)[C@H](CCCNC(=N)N)NC(=O)[C@H](CCCNC(=N)N)NC(=O)[C@H](Cc1ccccc1)NC(=O)CNC(=O)[C@H](CCCNC(=N)N)NC(=O)[C@H](CS)NC(=O)[C@H](CCCNC(=N)N)NC(=O)CNC(=O)CN)C(=O)N[C@H](C(=O)N[C@@H](Cc1c[nH]cn1)C(=O)N[C@@H](CS)C(N)=O)[C@@H](C)O [GMA4C_AC] (H-GGRCRGFRRRCFCTTHC-NH2; N-terminus assumed) |  |  |  |  |  |  |  | F. oxysporum MIC (F. oxysporum): 6 μuM; Retention of antifungal activity in presence of cations (B. cinerea [2]; B. cinerea, 100 mM NaCl or 100 mM KCl): retain their antifungal activity; SFM + 2 mM CaCl2 MIC (B. cinerea [2]; Table 4, B. cinerea): >6 (a few μM; SFM + 2 mM CaCl2 MIC (B. cinerea [2]; Table 10, values repeat Table 4 (B. cinerea)): >6 (a μM; F. graminearum MIC (F. graminearum): 3 µM; MIC (μM) Fusarium graminearum (F. graminearum): 3 µM (≈ 6.05 µg/mL); MIC Values (μM) against F. graminearum (F. graminearum): 6 µM (≈ 12.1 µg/mL)
3 | CC[C@H](C)[C@@H]1NC(=O)[C@H](CCCNC(=N)N)NC(=O)[C@H]([C@@H](C)O)NC(=O)[C@H](Cc2ccccc2)NC(=O)[C@H](Cc2c[nH]c3ccccc23)NC(=O)[C@H](Cc2ccccc2)NC(=O)[C@H](CCCNC(=N)N)NC(=O)[C@H](CCCNC(=N)N)NC(=O)[C@H](CC(C)C)NC(=O)[C@H](Cc2ccccc2)NC(=O)CNC(=O)[C@H](CCCCN)NC(=O)[C@@H](NC(=O)[C@H](CCCNC(=N)N)NC(=O)CNC(=O)CN)CSSC[C@@H](C(N)=O)NC1=O [GMA4C_V9] (H-GGRCKGFLRRFWFTRIC-NH2; disulfide 4-17; N-terminus assumed) | 3 µM (≈ 6.3 µg/mL) | 12 µM | 6 to 12 µM | 3 µM | >12 | 6 | >12 | Reduction of gray mold disease symptoms (lesion sizes) (B. cinerea [1]; detached N. benthamiana leaves): effective in reducing gray mold disease symptoms
4 | CC[C@H](C)[C@@H]1NC(=O)[C@H](CCCNC(=N)N)NC(=O)[C@H]([C@@H](C)O)NC(=O)[C@H](Cc2c[nH]c3ccccc23)NC(=O)[C@H](Cc2ccc(O)cc2)NC(=O)[C@H](Cc2c[nH]c3ccccc23)NC(=O)[C@H](CCCNC(=N)N)NC(=O)[C@H](CCCNC(=N)N)NC(=O)[C@H](CCCNC(=N)N)NC(=O)[C@H](Cc2ccccc2)NC(=O)CNC(=O)[C@H](CCCCN)NC(=O)[C@@H](NC(=O)[C@H](CCCNC(=N)N)NC(=O)CNC(=O)CN)CSSC[C@@H](C(N)=O)NC1=O [GMA4C_V10] (H-GGRCKGFRRRWYWTRIC-NH2; disulfide 4-17; N-terminus assumed) | 3 µM (≈ 6.6 µg/mL) | 3 µM | 3 to 6 µM | 3 µM | >12 | 6 | >12 | Reduction of gray mold symptoms at low concentrations (B. cinerea [1]; detached N. benthamiana leaves, peptide 1.5 μM and 3 μM): more effective in reducing the symptoms of gray mold than GMA4C_V9; Reduction of gray mold disease symptoms (lesion sizes) (B. cinerea [1]; detached N. benthamiana leaves): effective in reducing gray mold disease symptoms
5 | C[C@H](NC(=O)CN)C(=O)N[C@H]1CSSC[C@@H](C(N)=O)NC(=O)[C@H](CCCCN)NC(=O)[C@H](CCCCN)NC(=O)[C@H](Cc2ccc(O)cc2)NC(=O)[C@H](Cc2c[nH]c3ccccc23)NC(=O)[C@H](Cc2ccccc2)NC(=O)[C@H](Cc2c[nH]c3ccccc23)NC(=O)[C@H](C)NC(=O)[C@H](Cc2ccccc2)NC(=O)CNC(=O)[C@H](Cc2ccccc2)NC(=O)CNC(=O)[C@H](CCC(N)=O)NC(=O)[C@H](CCCNC(=N)N)NC(=O)[C@H](Cc2c[nH]cn2)NC1=O [GMA5CA_V3] (H-GACHRQGFGFAWFWYKKC-NH2; disulfide 3-18; N-terminus assumed) | 3 µM (≈ 6.57 µg/mL) | >12 µM | >12 µM | >12 µM | 3 | 6 | >12 | 
6 | C[C@H](NC(=O)CN)C(=O)N[C@H]1CSSC[C@@H](C(N)=O)NC(=O)[C@H](CCCCN)NC(=O)[C@H](CCCCN)NC(=O)[C@H](Cc2ccc(O)cc2)NC(=O)[C@H](Cc2ccccc2)NC(=O)[C@H](Cc2ccccc2)NC(=O)[C@H](Cc2ccccc2)NC(=O)[C@H](C)NC(=O)[C@H](Cc2ccccc2)NC(=O)CNC(=O)[C@H](Cc2ccccc2)NC(=O)CNC(=O)[C@H](CCC(N)=O)NC(=O)[C@H](CCCNC(=N)N)NC(=O)[C@H](Cc2c[nH]cn2)NC1=O [GMA5CA_V4] (H-GACHRQGFGFAFFFYKKC-NH2; disulfide 3-18; N-terminus assumed) | 3 µM (≈ 6.33 µg/mL) | >12 µM | >12 µM | >12 µM | 3 | 6 | >12 | 
7 | C[C@H](NC(=O)CN)C(=O)N[C@@H](CS)C(=O)N[C@@H](Cc1c[nH]cn1)C(=O)N[C@@H](CCCNC(=N)N)C(=O)N[C@@H](CCC(N)=O)C(=O)NCC(=O)N[C@@H](Cc1ccccc1)C(=O)NCC(=O)N[C@@H](Cc1ccccc1)C(=O)N[C@@H](C)C(=O)N[C@@H](CS)C(=O)N[C@@H](Cc1ccccc1)C(=O)N[C@@H](CS)C(=O)N[C@@H](Cc1ccc(O)cc1)C(=O)N[C@@H](CCCCN)C(=O)N[C@@H](CCCCN)C(=O)N[C@@H](CS)C(N)=O [GMA5CA_WT] (H-GACHRQGFGFACFCYKKC-NH2) |  |  |  |  | 6 | 12 | >12 | 
8 | CC(C)C[C@@H]1NC(=O)[C@@H](NC(=O)[C@H](C)NC(=O)CN)CSSC[C@@H](C(=O)N[C@@H](Cc2ccc(O)cc2)C(N)=O)NC(=O)[C@H](Cc2c[nH]cn2)NC(=O)[C@H](CCCNC(=N)N)NC(=O)[C@H](Cc2ccc(O)cc2)NC(=O)[C@H](Cc2ccc(O)cc2)NC(=O)[C@H](Cc2c[nH]c3ccccc23)NC(=O)[C@H](Cc2ccccc2)NC(=O)[C@H](Cc2c[nH]c3ccccc23)NC(=O)CNC(=O)[C@H](Cc2ccc(O)cc2)NC(=O)[C@H](Cc2c[nH]cn2)NC(=O)[C@H](CCCCN)NC(=O)[C@H](CO)NC(=O)[C@H](Cc2c[nH]cn2)NC(=O)[C@H](CCCNC(=N)N)NC(=O)[C@H](CC(N)=O)NC(=O)[C@H](CCCCN)NC1=O [GMAOe1C_V3] (H-GACLKNRHSKHYGWFWYYRHCY-NH2; disulfide 3-21; N-terminus assumed) | 1.5 µM (≈ 4.31 µg/mL) | 3 to 6 µM | 6 to 12 µM | 2 to 3 µM |  |  |  | Reduction of gray mold symptoms at 1.5 μM (B. cinerea [1]; drop inoculation assay): more effective than GMAOe1C_V4 or GMAOe1C_WT
9 | GRCRGFRRRCFCTTHC-NH2 (cysteine pairing not given here) [GMA4AC] |  |  |  |  | >12 | >12 | >12 | 
